Columns and labels:
[1] = test system: GAL4 peptide; assay: Binding of fluorescent labeled GAL4 peptide to protein extracts of monoclonal clones; details: other proteins tested even in much higher concentrations
[2] = target: T1, dimerisation domain of 1HBW REGULATORY PROTEIN GAL4 (Saccharomyces cerevisiae, UniProt P04386); assay: BacterioMatch two-hybrid assay with Target Oligo Pool in pTRG vector; type: cell-based; details: ampicillin-resistant reporter
T1 construct: the dimerisation domain of 1HBW REGULATORY PROTEIN GAL4 inserted into pBT (as it is provided and described by Stratagene); host or cells: E. coli BacterioMatch two-hybrid reporter strain (derived from XL1-Blue MRF')
T1 sequence (P04386 50-106 limits assumed): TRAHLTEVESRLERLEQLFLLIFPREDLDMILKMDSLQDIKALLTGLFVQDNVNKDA
Protocol: The BacterioMatch™ two-hybrid system* (Stratagene, 11011 N. Torrey Pines Road La Jolla, Calif. 92037) was used to Quickly Detect Protein-Protein Interactions designed by the recent Method. It is a simple alternative or complement to yeast two-hybrid systems for in vivo detection of protein-protein interactions. Because the two-hybrid assay is performed in bacteria, results are obtained more easily and quickly than in yeast. The system is based on transcriptional activation of a primary ampicillin-resistant reporter and a secondary β-galactosidase reporter for validation. The BacterioMatch two-hybrid system is based on a methodology developed by Dove, Joung, and Hochschild of Harvard Medical School.
The BacterioMatch two-hybrid system is based on transcriptional activation (FIG. 4). A protein of interest—the bait—is fused to the full-length bacteriophage repressor protein (.lamda.cI). The corresponding target protein is fused to the amino-terminal domain of the α-subunit of RNA polymerase (RNAPα). The bait is tethered to the […] sequence upstream of the reporter promoter through the DNA-binding domain of .lamda.cI. If the bait and target interact, they recruit and stabilize the binding of RNA polymerase close to the promoter and activate the transcription of the ampicillin-resistant reporter gene in the BacterioMatch two-hybrid reporter strain. […]

Q: For “Unlabelled GAL4: unlabelled GAL4 peptide, the query, used as competitor of labeled GAL4 (ESRLERLEQLFLLIF)”, which “competition with binding of labeled GAL4 to the proteins from positive clones” value (“competition with binding of labeled GAL4” for short) [1] is on record?
A: Its value is “inhibited”.

Q: For growth hormone, which “competition with binding of labeled GAL4” value [1] is on record?
A: Its value is “ineffective competitors”.

B1: prolactin (protein, UniProt P01236 29-227, looked up)
Prolactin: LPICPGGAARCQVTLRDLFDRAVVLSHYIHNLSSEMFSEFDKRYTHGRGFITKAINSCHTSSLATPEDKEQAQQMNQKDFLSLIVSILRSWNEPLYHLVTEVRGMQEAPEAILSKAVEIEEQTKRLLEGMELIVSQVHPETKENEIYPVWSGLPSLQMADEESRLSAYYNLLHCLRRDSHKIDNYLKLLKCRIIHNNNC
Q: For B1, which “competition with binding of labeled GAL4” value [1] is on record?
A: The value was “ineffective competitors”.

B2: TARGET TEMPLATE to … (GAL4 17-31AA): Target oligo template pool, 1st and 3rd codon letters reverse-complementary to Gal4 coding sequence 17-31, 2nd letter undefined (nucleic acid)
DNA: GGATCCATGANTCNTGNCANGGNCTNCTNGANGANAANTCNGTNGANATNGCNGATTCGGCCGC
modifications: listed as DNA, chemistry not fully specified; the letters are possibly those of the target site
Q: With B2 as the molecule, how does the “positive bacterial clones growing on double selective medium” value [2] read?
A: Its value is “numerous positive bacterial clones”.

— patent US8145437B2, “System and method to obtain oligo-peptides with specific high affinity to query proteins” (priority 2005, dated 2012)
